Biological target: T1, acylpeptide hydrolase (ACPH) (Rattus norvegicus, UniProt P13676)
T1 construct: 50 μl of brain homogenate and 100 μM N-acetyl-methionyl-aminomethyl-coumarin as the enzyme substrate; from tissue; host or cells: rat brain homogenate
T1 sequence (P13676 1-732): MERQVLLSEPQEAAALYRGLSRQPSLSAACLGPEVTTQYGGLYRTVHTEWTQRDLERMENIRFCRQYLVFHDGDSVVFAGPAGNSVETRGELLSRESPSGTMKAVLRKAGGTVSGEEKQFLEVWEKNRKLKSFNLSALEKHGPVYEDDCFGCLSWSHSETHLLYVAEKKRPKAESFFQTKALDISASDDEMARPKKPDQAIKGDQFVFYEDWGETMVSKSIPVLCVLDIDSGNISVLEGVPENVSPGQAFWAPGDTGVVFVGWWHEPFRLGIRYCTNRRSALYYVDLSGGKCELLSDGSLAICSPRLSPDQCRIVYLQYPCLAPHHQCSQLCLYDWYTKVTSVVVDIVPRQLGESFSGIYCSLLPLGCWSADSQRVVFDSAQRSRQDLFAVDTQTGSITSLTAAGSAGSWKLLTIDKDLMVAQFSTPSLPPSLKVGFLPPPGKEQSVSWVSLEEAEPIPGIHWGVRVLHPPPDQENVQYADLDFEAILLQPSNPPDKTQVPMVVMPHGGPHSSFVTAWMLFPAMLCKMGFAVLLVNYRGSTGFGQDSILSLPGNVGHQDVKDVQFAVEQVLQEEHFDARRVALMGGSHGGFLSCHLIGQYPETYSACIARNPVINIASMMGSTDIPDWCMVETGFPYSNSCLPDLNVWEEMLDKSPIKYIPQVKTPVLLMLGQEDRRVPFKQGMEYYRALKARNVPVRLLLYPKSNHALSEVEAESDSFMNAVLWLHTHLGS
Test: In vitro determination of the inhibition of ACPH
Type: biochemical
Conditions: rat brain homogenate; substrate 100 μM N-acetyl-methionyl-aminomethyl-coumarin; 30 min preincubation, 30 min reaction
Method: In vitro determination of the Inhibition of ACPH
In the standard experiment, rat brains are homogenized in a 10-fold volume (w/v) of 50 mM tris HCl buffer, 1 mM EDTA, 100 mM NaCl, 0.1% BSA, 1 mM DDT, pH 7.2. The protein concentration of the homogenate is adjusted to approximately 5 mg/ml by dilution with buffer. The incubation batch (110 μl) contains 40 μl of buffer, various test concentrations of the test substances to be tested in 10 μl of buffer, 50 μl of brain homogenate and 100 μM N-acetyl-methionyl-aminomethyl-coumarin as the enzyme substrate. Before addition of the substrate, the reaction mixture is preincubated at room temperature for 30 min. The enzyme reaction is started by substrate addition. The reaction time is 30 min. Afterwards, the samples are activated in a fluorimeter at 390 nm and determined quantitatively at 460 nm. The IC50 value is calculated from the enzyme activity in the presence of increasing concentrations of test substance in the test. For the measurement of the ACPH activity, purified enzyme from liver or other organs can also be used and also homogenates of other organs having ACPH activity, such as liver or erythrocytes.
`O=C(N1CCCC1)n1oc(=O)c2c(F)cccc21` [Example 4] gave an IC50 of 0.006 µM. Work on `CN(C)C(=O)n1oc(=O)c2ccccc21` [Example 5] yielded an IC50 of 0.018 µM. In the case of `Cc1ccc2c(c1)c(=O)on2C(=O)N1CCCC1` [Example 6], the IC50 is reported as 0.048 µM. `O=C(N1CCCC1)n1oc(=O)c2cc(F)c(F)cc21` [Example 7] gave an IC50 of 0.099 µM.

Test system: not given
Test: not given
Conditions: not given
With `CN(CCCl)C(=O)n1oc(=O)c2cc(Cl)ccc21` the melting point was 52 °C. For `O=C(N1CCC1)n1oc(=O)c2ccccc21` [Example 2], the melting point was 163 °C. Compound `O=C(N1CCCC1)n1oc(=O)c2ccccc21` [Example 3] has a melting point of 99 °C. `O=C(N1CCCC1)n1oc(=O)c2c(F)cccc21` [Example 4] showed a melting point of 109 °C. Compound `CN(C)C(=O)n1oc(=O)c2ccccc21` [Example 5] has a melting point of 93 °C. With `Cc1ccc2c(c1)c(=O)on2C(=O)N1CCCC1` [Example 6] the melting point was 129 °C. `O=C(N1CCCC1)n1oc(=O)c2cc(F)c(F)cc21` [Example 7] showed a melting point of 133 °C. With `O=C(N1CCCC1)n1oc(=O)c2cc(Cl)ccc21` [Example 8] the melting point was 103 °C. `O=C(N1CCOCC1)n1oc(=O)c2ccc(Cl)cc21` [Example 10] showed a melting point of 116 °C. `O=C(N1CC2CCC2C1)n1oc(=O)c2ccc(Cl)cc21` (centres unmarked) [Example 12] gave a melting point of 98 °C. With `O=C(N1CCOCC1)n1oc(=O)c2c(F)cccc21` [Example 14] the melting point was 141 °C. `O=C(N1CC2CCC2C1)n1oc(=O)c2cc(Cl)ccc21` (centres unmarked) [Example 15] showed a melting point of 85 °C. `O=C(N1CCOCC1)n1oc(=O)c2cc(Cl)ccc21` [Example 19] gave a melting point of 153 °C.

From US6589949B1, “3-oxo-2,1-benzisoxazol-1(3H)-carboxamides for treatment of CNS diseases” (Bayer Aktiengesellschaft, priority 1999, dated 2003)
